Assay results: article PMC10667816, “A Cell‐Penetrant Peptide Disrupting the Transcription Factor CP2c Complexes Induces Cancer‐Specific Synthetic Lethality” (Advanced Science, 2023)
Where a SMILES comes first, the peptide text is derived from it.

Legend:
[1] = molecular target: T1, endogenous nuclear and cytoplasmic CP2c complexes (Homo sapiens, UniProt Q12800); assay: DSP crosslinking‐Western blot of endogenous CP2c complexes; type: cell-based; settings: DSP XL‐WB and WB with new protein synthesis inhibition
T1 construct: dissociated all endogenous nuclear and cytoplasmic CP2c complexes; endogenous in cells
T1 sequence (Q12800 whole entry, one chain of several): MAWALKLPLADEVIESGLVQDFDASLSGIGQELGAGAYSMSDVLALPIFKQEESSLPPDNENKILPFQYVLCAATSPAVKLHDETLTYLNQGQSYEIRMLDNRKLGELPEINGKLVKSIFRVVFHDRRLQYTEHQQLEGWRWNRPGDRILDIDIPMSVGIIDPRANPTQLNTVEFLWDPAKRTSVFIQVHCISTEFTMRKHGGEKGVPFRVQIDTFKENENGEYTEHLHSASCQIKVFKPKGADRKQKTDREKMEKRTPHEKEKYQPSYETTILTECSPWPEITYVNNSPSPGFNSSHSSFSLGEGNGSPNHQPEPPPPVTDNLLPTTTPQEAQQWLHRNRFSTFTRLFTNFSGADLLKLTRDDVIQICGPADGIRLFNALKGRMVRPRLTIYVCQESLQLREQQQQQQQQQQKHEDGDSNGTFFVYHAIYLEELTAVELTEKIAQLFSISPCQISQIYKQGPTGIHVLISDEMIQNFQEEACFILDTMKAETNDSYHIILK
Experimental: Cell extracts were prepared using lysis buffer (50 mM Tris‐HCl, pH 7.4, 150 mM NaCl, 1 mM EDTA, 0.1% triton X‐100, and 1 mM PMSF). The cell extracts were separated by SDS‐PAGE and electro‐blotted onto polyvinylidene difluoride (PVDF) membranes (GE healthcare, 10600069). For slot blotting, the cell extracts were blotted onto nitrocellulose (NC) membranes (GE healthcare, 10484059) using a Bio‐Dot (Bio‐Rad, 1706542). Typically, membranes were blocked with 5% non‐fat dry milk in a solution of 0.1% Tween 20, and with 5% BSA in case of biotin blotting. Membranes were incubated overnight at 4 °C with appropriate dilutions of the primary antibodies (listed in Table S4, Supporting Information) after blocking. The blots were incubated for 1 h at room temperature with the respective HRP‐conjugated secondary antibodies (listed in Table S4, Supporting Information). Polyclonal ACTB antibody was used as a loading control for WB. […] Relative amounts of proteins were quantified using Image J (ver. 1.51) program.
To determine DNA‐free CP2c containing complexes, live cells were washed twice with the 2.5 mM sodium phosphate buffer, pH 7.4, crosslinked using 2 mM DSP in PBS for 3 h on ice, and crosslinking was terminated with 50 mM Tris‐HCl, pH 7.4, for 15 min at room temperature. […] Crosslinked samples were analyzed by pulldown assay or mass spectrometry.

[2] = system: normal cells derived from humans or mouse; assay: MTT growth inhibition in normal cells; type: cell-based, human; settings: concentrations up to 10 µM
Source text: Figure S3. Anticancer effect of Pep #5-2 truncated and substitution mutants
A) Names and peptide sequences of each mutant. Peptides corresponding to each Pep #5-2 truncated or substitution mutant are linked to a cell penetration peptide, iRGD (highlighted with yellow boxes). B-E) Cell growth inhibition profiles and GI50 values of each mutant in representative cancer cell lines. GI50 values estimated from duplicated data are expressed as means ± SD . Data are presented as means ± SD of two independent biological replicates. Anticancer effect of ACP52C, ACP52-51C, ACP52-52C, and ACP52-4C (B), amino acid substitution mutants of ACP52 -4C (C), and ACP52C, ACP52-4C, ACP52-31C, and ACP52-32C (D). Cell growth inhibition was teste d in cells using MTT assay over peptide dose at 48 h after peptide treatment, and GI50 values estimated from duplicated data are expressed as means ± SD. ( E) Summary of GI50 values of each mutant in representative cancer cell lines. GI 50 values estimated from duplicated data are expressed as means ± SD. Two-tailed unpaired Student’s t-tests, ***P < 0.001; ns: non-significant. […]

[3] = molecular target: CP2c complexes (Homo sapiens, UniProt Q12800); assay: In vitro IP and pulldown assays of CP2c complexes; type: biochemical; settings: regardless of the presence of probe DNA
CP2c complexes, sequence (Q12800 whole entry, one chain of several): as above
Experimental: Cells were lysed with lysis buffer (50 mM Tris‐HCl, pH 7.4, 150 mM NaCl, 1 mM EDTA, 0.1% triton X‐100, and 1 mM PMSF) with freshly added 1 mM DTT and a protease inhibitor cocktail. Input samples (10% of whole lysate) were saved from each lysate for WB analysis. For immunoprecipitation, precleared extracts were incubated overnight at 4 °C with 10 µL Protein A/G agarose beads, pre‐incubated with 2 µg of the primary antibodies (Table S4, Supporting Information). The immune complexes were washed 3 times with lysis buffer, and bound proteins were eluted with 2X bed volume of 0.2 M glycine buffer, followed by neutralization with an equal volume of 1 M Tris‐HCl, pH 8.0. For Flag tag immunoprecipitation, precleared extracts were incubated with 2 µL of Flag‐M2 beads (Sigma–Aldrich, A2220) by rotating overnight at 4 °C. The immune complexes were washed 3 times with lysis buffer, bound proteins were eluted with 100 µg mL^−1 Flag peptide (Sigma–Aldrich, F4799). Precipitated proteins were analyzed using western blot.
Biotinylated‐DNA fragments or ‐peptides and GST‐fused CP2c, whole‐ or nuclear‐ extracts of MDA‐MB‐231 cells were used for the analyze the interaction of peptide or DNA with CP2c. Nuclear extracts were extracted by the method described elsewhere.^[ [14] ^] […] The radioactivity of the eluted probe was measured by scintillation counting. […]

Row | SMILES | dissociation of endogenous CP2c complexes [1] | growth inhibition [2] | dissociation of CP2c complexes [3]
1 | CC(=O)N[C@@H](CC(N)=O)C(=O)N[C@@H](Cc1ccc(O)cc1)C(=O)N1CCC[C@H]1C(=O)N[C@@H](CCC(N)=O)C(=O)N[C@@H](CCCNC(=N)N)C(=O)N1CCC[C@H]1C(=O)N[C@@H](CS)C(=O)N[C@@H](CCCNC(=N)N)C(=O)NCC(=O)N[C@@H](CC(=O)O)C(=O)N[C@@H](CCCCN)C(=O)NCC(=O)N1CCC[C@H]1C(=O)N[C@@H](CC(=O)O)C(=O)N[C@@H](CS)C(N)=O [ACP52C] (Ac-NYPQRPCRGDKGPDC-NH2) | readily dissociated all endogenous nuclear and cytoplasmic CP2c complexes | did not show any growth inhibition | –
2 | CCOc1ccccc1C1CC(=O)Nc2cc3c(cc21)OCO3 (stereo not drawn) [FQI1, Factor Quinolinone Inhibitor 1, reference compound] | – | – | only slight perturbation of CP2c complexes
